Laboratory results: US7632830B2, “Lactam compounds and pharmaceutical use thereof” (Ajinomoto Co., Inc., priority 2000, dated 2009)
≈ marks a conversion by molar mass, not a printed value.

Tested on: adipose cells of rats
Experiment: Evaluation of the sugar-transporting activity (2-[14C(U)]-deoxy-D-glucose incorporation)
Type: cell-based
Details: 100 μg/ml of each compound; evaluated on the basis of the reinforcing effect of insulin (100 nM); rat adipose cells
Description: After the decapitation and venesection of 6 male Wistar rats (body weight: 150 to 200 g), an incision was made in the abdomen of each rat to extract 6 g in total of epididymal adipose tissues. The tissues were finely cut into 2 mm×2 mm pieces in 6 ml of KRH (Krebs-Ringer Hepes, composition: 130 mM of sodium chloride, 4.7 mM of potassium chloride, 1.2 mM of potassium dihydrogenphosphate, 1.2 mM of magnesium sulfate, 1 mM of calcium chloride and 25 mM of Hepes, pH=7.6) containing 5% of BSA (bovine serum albumin). 24 mg of collagenase (type I) was added thereto and the digestion treatment was conducted for about 40 minutes to obtain about 6 ml of isolated adipose cells. The collagenase was removed by the buffer exchange. 2% BSA/KRH solution was added to the residue for the re-suspension to obtain 45 ml of an adipose cell suspension.
The sugar-transporting activity of the compounds of the present invention was evaluated with reference to a method described in a literature [Annual Review of Biochemistry, Vol. 55, p. 1059 (1986)]. In the test, 200 μl of the adipose cell suspension was poured in each polystyrene test tube, 100 μl of the solution of the test substance (by dilution of 10 mg/ml substance dimethyl sulfoxide solution with KRH) was added thereto, and the obtained mixture was shaken and then cultured at 37° C. for 30 minutes.
The sugar-transporting activity was evaluated by measuring the quantity of 2-[^14C(U)]-deoxy-D-glucose incorporated per a unit time. Namely, 2-[^14C(U)]-deoxy-D-glucose was added to the adipose cell suspension after the pre-culture (the final concentration: 0.5 μCi/sample). 5 minutes after, cytochalasin B (final concentration: 10 μM) was added to the mixture to terminate the sugar transportation. After forming a dinonyl phthalate layer, the obtained mixture was centrifuged to separate the adipose cells from the buffer. The quantity of 2-[^14C(U)]-deoxy-D-glucose contained in the adipose cell layer was determined with a liquid scintillation counter to determine the quantity of the incorporated sugar. In this evaluation system, when insulin (100 nM) having the effect of increasing the sugar transportation was used, the effect was about 7 times as high as that obtained in the insulin-free control group.
The results of the evaluation of the sugar-transporting activity obtained by using 100 μg/ml of each compound of the present invention are shown in Table 6. The sugar transporting activity in Table 6 was evaluated on the basis of the reinforcing effect of insulin (100 nM). […] The symbols in Table 6 are as follows: • No: Example No., and • A: sugar transporting activity.
The results of the evaluation of the sugar-transporting activity obtained by using each compound of the present invention are shown in Table 7. The sugar transporting activity in Table 7 was determined in terms of the concentration (EC50: μg/ml) of a test compound, having a reinforcing effect corresponding to 50% on the basis of the reinforcing effect of insulin having a reinforcing effect of 100%.

| SMILES | activation at 100 µg/mL |
| --- | --- |
| O=C1NCC2=C1C(c1ccc(C#Cc3ccccc3)cc1)Nc1ccccc1N2 (stereo not drawn) [Example 6] | 40 to 70% |
| O=C1NCC2=C1[C@@H](c1ccc(OCc3ccccc3)cc1O)N[C@@H]1CCCC[C@H]1N2 [Example 38] | ≥ 70% |
| CC(C)(C)CC(C)(C)c1ccc(C2Nc3ccccc3NC3=C2C(=O)NC3)c(Cl)c1 (stereo not drawn) [Example 31] | ≥ 70% |
| O=C1NCC2=C1C(c1ccc(OC3CCCCCC3)cc1)Nc1ccccc1N2 (stereo not drawn) [Example 12] | 20 to 40% |
| CCCCOc1ccc(C2Nc3ccccc3NC3=C2C(=O)NC3)c(OCCCC)c1 (stereo not drawn) [Example 22] | ≥ 70% |
| O=C1NCC2=C1C(c1ccc(-c3ccccc3)cc1)Nc1ccccc1N2 (stereo not drawn) [Example 7] | 40 to 70% |
| CCCCOc1ccc(C2Nc3ccccc3NC3=C2C(=O)NC3)c(OCCC)c1 (stereo not drawn) [Example 24] | ≥ 70% |
| CC(C)(C)c1ccc(C2Nc3ccccc3NC3=C2C(=O)NC3)cc1 (stereo not drawn) [Example 5] | 20 to 40% |
| CCCCOc1ccc(C2Nc3ccccc3NC3=C2C(=O)NC3)c(OC)c1 (stereo not drawn) [Example 21] | 40 to 70% |

Same assay, conditions: concentration having a reinforcing effect corresponding to 50% of the reinforcing effect of insulin (100%); rat adipose cells

| A: sugar transporting activity (EC50) | EC50 | SMILES |
| --- | --- | --- |
| 5.5 mg/L |  | COc1ccccc1[C@@H]1C2=C(CNC2=O)N[C@@H]2CCCC[C@H]2N1C(=O)CC(C)=O [Example 72] |
| 6 mg/L |  | COC(=O)N1[C@@H]2CCCC[C@H]2NC2=C(C(=O)NC2)[C@H]1c1ccccc1OC [Example 80] |
| 3.4 mg/L |  | COCCC(=O)N1[C@@H]2CCCC[C@H]2NC2=C(C(=O)NC2)[C@H]1c1ccccc1OC [Example 67] |
| 2 mg/L |  | COc1ccccc1[C@@H]1C2=C(CNC2=O)N[C@@H]2CCCC[C@H]2N1C(=O)CO [Example 51] |
| 2.6 mg/L |  | COc1ccccc1[C@@H]1C2=C(CNC2=O)N[C@@H]2CCCC[C@H]2N1C(=O)CCSC [Example 71] |
| 0.064 mg/L |  | COc1ccccc1[C@@H]1C2=C(CNC2=O)N[C@@H]2CCCC[C@H]2N1C(=O)CCc1ncco1 [Example 166] |
| 8 mg/L |  | COc1ccccc1[C@@H]1C2=C(CNC2=O)N[C@@H]2CCCC[C@H]2N1C(=O)CCN [Example 66] |
| 0.9 mg/L |  | COc1ccccc1[C@@H]1C2=C(CNC2=O)N[C@@H]2CCCC[C@H]2N1C(=O)CCc1ccccc1 [Example 68] |
| 4.8 mg/L |  | COC(=O)CCC(=O)N1[C@@H]2CCCC[C@H]2NC2=C(C(=O)NC2)[C@H]1c1ccccc1OC [Example 60] |
| 1.3 mg/L |  | CCCC(=O)N1[C@@H]2CCCC[C@H]2NC2=C(C(=O)NC2)[C@H]1c1ccccc1OCC [Example 89] |
| 13 mg/L |  | CCOc1ccccc1[C@@H]1C2=C(CNC2=O)N[C@@H]2CCCC[C@H]2N1C(=O)COC(C)=O [Example 91] |
| 0.050 mg/L |  | COc1ccccc1[C@@H]1C2=C(CNC2=O)N[C@@H]2CCCC[C@H]2N1C(=O)CCc1ncc(C)s1 [Example 174] |
| 0.021 mg/L |  | COc1ccccc1[C@@H]1C2=C(CNC2=O)N[C@@H]2CCCC[C@H]2N1C(=O)CCc1ccccn1 [Example 176] |
| 0.77 mg/L |  | CCC(=O)N1[C@@H]2CCCC[C@H]2NC2=C(C(=O)NC2)[C@H]1c1ccccc1OC [Example 46] |
| 2 mg/L |  | CCC(=O)N1[C@@H]2CCCC[C@H]2NC2=C(C(=O)NC2)[C@H]1c1ccccc1OC(C)C [Example 99] |
| 1.1 mg/L |  | CC=CC(=O)N1C(c2ccccc2OC)C2=C(CNC2=O)NC2CCCCC21 (stereo not drawn) [Example 59] |
| 1.3 mg/L |  | COc1ccccc1[C@@H]1C2=C(CNC2=O)N[C@@H]2CCCC[C@H]2N1C(C)=O [Example 45] |
| 0.47 mg/L |  | COc1ccccc1[C@@H]1C2=C(CNC2=O)N[C@@H]2CCCC[C@H]2N1C(=O)CC(F)(F)F [Example 49] |

Continued, compound first:

| SMILES | A: sugar transporting activity (EC50) | EC50 |
| --- | --- | --- |
| CCOc1ccccc1[C@@H]1C2=C(CNC2=O)N[C@@H]2CCCC[C@H]2N1C(=O)C(F)(F)F [Example 90] | 5 mg/L |  |
| CCC(=O)N1[C@@H]2CCCC[C@H]2NC2=C(C(=O)NC2)[C@H]1c1ccccc1F [Example 149] | 2 mg/L |  |
| CCOCC(=O)N1[C@@H]2CCCC[C@H]2NC2=C(C(=O)NC2)[C@H]1c1ccccc1OCc1ccccc1 [Example 102] | 4 mg/L |  |
| COc1ccc(F)cc1[C@@H]1C2=C(CNC2=O)N[C@@H]2CCCC[C@H]2N1C(C)=O [Example 113] | 10 mg/L |  |
| COC(=O)N1[C@@H]2CCCC[C@H]2NC2=C(C(=O)NC2)[C@H]1c1ccccc1 [Example 156] | 2 mg/L |  |
| COc1ccccc1[C@@H]1C2=C(CNC2=O)N[C@@H]2CCCC[C@H]2N1C(=O)COc1ccccc1 [Example 55] | 4.6 mg/L |  |
| CCC(=O)N1[C@@H]2CCCC[C@H]2NC2=C(C(=O)NC2)[C@H]1c1ccccc1C [Example 118] | 2 mg/L |  |
| CCOCC(=O)N1[C@@H]2CCCC[C@H]2NC2=C(C(=O)NC2)[C@H]1c1ccccc1OCC [Example 94] | 4 mg/L |  |
| COC(=O)N1[C@@H]2CCCC[C@H]2NC2=C(C(=O)NC2)[C@H]1c1ccccc1OC(C)C [Example 101] | 4.8 mg/L |  |
| COc1ccccc1[C@@H]1C2=C(CNC2=O)N[C@@H]2CCCC[C@H]2N1C(=O)Oc1ccccc1 [Example 83] | 11 mg/L |  |
| CCC(=O)N1[C@@H]2CCCC[C@H]2NC2=C(C(=O)NC2)[C@H]1c1ccccc1CC [Example 127] | 2.2 mg/L |  |
| COc1ccccc1CCC(=O)N1[C@@H]2CCCC[C@H]2NC2=C(C(=O)NC2)[C@H]1c1ccccc1OC [Example 69] | 4 mg/L |  |
| O=C1NCC2=C1[C@@H](c1ccccc1OC(F)(F)F)N(C(=O)CCc1nccs1)[C@@H]1CCCC[C@H]1N2 [Example 171] | 0.070 mg/L |  |
| CCOCC(=O)N1[C@@H]2CCCC[C@H]2NC2=C(C(=O)NC2)[C@H]1c1ccccc1 [Example 155] | 2.7 mg/L |  |
| CCOc1ccccc1[C@@H]1C2=C(CNC2=O)N[C@@H]2CCCC[C@H]2N1C(=O)CCc1ncco1 [Example 167] | 0.10 mg/L |  |
| COc1ccccc1[C@@H]1C2=C(CNC2=O)N[C@@H]2CCCC[C@H]2N1C(=O)Cc1ccccc1 [Example 56] | 5 mg/L |  |
| COC(=O)CC(=O)N1[C@@H]2CCCC[C@H]2NC2=C(C(=O)NC2)[C@H]1c1ccccc1Br [Example 136] | 1.5 mg/L |  |
| COC(=O)CC(=O)N1[C@@H]2CCCC[C@H]2NC2=C(C(=O)NC2)[C@H]1c1ccccc1Cl [Example 146] | 2 mg/L |  |
| CCOCC(=O)N1[C@@H]2CCCC[C@H]2NC2=C(C(=O)NC2)[C@H]1c1ccccc1F [Example 150] | 2 mg/L |  |
| CC(=O)OCC(=O)N1[C@@H]2CCCC[C@H]2NC2=C(C(=O)NC2)[C@H]1c1ccccc1C [Example 120] | 8 mg/L |  |
| CCOC(=O)N1[C@@H]2CCCC[C@H]2NC2=C(C(=O)NC2)[C@H]1c1ccccc1OCC [Example 96] | 7 mg/L |  |
| Cc1ccccc1[C@@H]1C2=C(CNC2=O)N[C@@H]2CCCC[C@H]2N1C(=O)CCc1ccccn1 [Example 175] | 0.020 mg/L |  |
| CCOC(=O)N1[C@@H]2CCCC[C@H]2NC2=C(C(=O)NC2)[C@H]1c1ccccc1C [Example 124] | 7 mg/L |  |
| COc1ccccc1[C@@H]1C2=C(CNC2=O)N[C@@H]2CCCC[C@H]2N1C(=O)C(F)(F)C(F)(F)F [Example 50] | 9.5 mg/L |  |
| COc1ccccc1[C@@H]1C2=C(CNC2=O)N[C@@H]2CCCC[C@H]2N1C(=O)c1ccncc1 [Example 78] | 18 mg/L |  |
| CCOCC(=O)N1[C@@H]2CCCC[C@H]2NC2=C(C(=O)NC2)[C@H]1c1ccccc1Cl [Example 145] | 10.7 mg/L |  |
| CC(=O)N1[C@@H]2CCCC[C@H]2NC2=C(C(=O)NC2)[C@H]1c1ccc(Br)s1 [Example 180] |  | 19 mg/L (≈ 46.3 µM) |
